Results taken from patent US8604055B2, “Substituted benzylamino quinolines as cholesterol ester-transfer protein inhibitors” (Dr. Reddy's Laboratories Ltd., priority 2004, dated 2013).

Biological target: T1, Recombinant CETP enzyme (Homo sapiens, UniProt P11597)
T1 construct: purchased Cardiovascular Targets
T1 sequence (P11597 18-493): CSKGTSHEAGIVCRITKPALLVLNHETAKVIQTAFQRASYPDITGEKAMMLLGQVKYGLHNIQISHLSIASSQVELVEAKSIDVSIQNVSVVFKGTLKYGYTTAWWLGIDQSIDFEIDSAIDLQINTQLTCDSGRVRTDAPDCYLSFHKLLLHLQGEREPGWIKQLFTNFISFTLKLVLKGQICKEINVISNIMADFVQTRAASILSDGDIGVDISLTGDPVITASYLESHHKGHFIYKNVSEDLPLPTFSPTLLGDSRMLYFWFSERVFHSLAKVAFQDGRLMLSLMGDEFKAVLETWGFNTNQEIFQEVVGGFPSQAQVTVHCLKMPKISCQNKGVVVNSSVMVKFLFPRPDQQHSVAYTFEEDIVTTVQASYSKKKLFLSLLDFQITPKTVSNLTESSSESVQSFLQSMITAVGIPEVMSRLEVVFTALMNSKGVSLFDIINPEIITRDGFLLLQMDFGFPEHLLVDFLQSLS
Experiment: In vitro fluorescence-based CETP inhibition assay (BODIPY-CE transfer from donor to acceptor microemulsions)
Format: biochemical
Details: recombinant CETP 0.14 ng/μl; transfer of fluorescent cholesteryl ester monitored over 2 hours; vs DMSO controls
Protocol: An in vitro fluorescence-based assay to identify CETP inhibitors was developed from modifications of the protocols outlined in Bisgaier et al., J Lipid Res., 34(9): 1625-34 (1993) and Epps et al., Chem Phys Lipids., 77(1): 51-63 (1995). Acceptor and donor lipid microemulsions were prepared according to Bisgaier et al., 1993, except that the buffer was prepared with 0.67 ug/mL human HDL (Calbiochem). Donor microemulsions contained the fluorescent cholesteryl ester analog BODIPY-CE (Molecular Probes), characterized by excitation and emission maxima at 503 nm and 518 nm, respectively. The CETP-mediated transfer of fluorescent cholesteryl ester to acceptor particles was monitored over a 2-hour time period using the FAM filter set (excitation 492 nm, emission 516 nm) in an MX3000P fluorescent plate reader (Stratagene). Recombinant CETP enzyme (Cardiovascular Targets) was used at 0.14 ng/μl, final concentration, to achieve lipid transfer. CETP inhibition by compounds was compared to DMSO controlsand graphed as a percentage of the control CETP activity over 2 hours. The IC50 curves for CETP inhibition were generated from the activity profiles. Active compounds were also tested for CETP inhibition as above, but in the presence of 3% human serum albumin, fraction V (Calbiochem).

Compound: CCN(CC1CCCC1)c1nc2c(cc1CN(Cc1cc(C(F)(F)F)cc(C(F)(F)F)c1)C(=O)OC)CCC2 [Example 75, (3,5-bis-trifluoromethyl-benzyl)-[2-(cyclopentylmethyl-ethyl-amino)-6,7-dihydro-5H-[1]pyridin-3-ylmethyl]-carbamic acid methyl ester]
- IC50: ≤ 5 µM

Compound: Cc1nn(C)c2nc(N(C)CC3CCC3)c(CN(Cc3cc(C(F)(F)F)cc(C(F)(F)F)c3)c3nnn(C)n3)cc12 [Example 4, (5-{[(3,5-bis-trifluoromethyl-benzyl)-(2-methyl-2H-tetrazole-5-yl)-amino]-methyl}-1,3-dimethyl-1H-pyrazolo[3,4-b]pyridin-6-yl)-cyclobutylmethyl-methyl-amine]
- IC50: ≤ 1 µM

Compound: CCN(CC1CCCC1)c1nc2c(cc1CN(Cc1cc(C(F)(F)F)cc(C(F)(F)F)c1)c1nnn(C)n1)CCC2 [Example 76, (3-{[(3,5-bis-trifluoromethyl-benzyl)-(2-methyl-2H-tetrazole-5-yl)-amino]-methyl}-,6,7-dihydro-5H-[1]pyridine-2-yl)-cyclopentylmethyl-ethyl-amine]
- IC50: ≤ 1 µM

Compound: CCN(CC1CCCC1)c1nc2ccccc2cc1CN(Cc1cc(C(F)(F)F)cc(C(F)(F)F)c1)Cc1nnn(C)n1 [Example 70, (3-{[(3,5-bis-trifluoromethyl-benzyl)-(2-methyl-2H-tetrazol-5-ylmethyl)-amino]-methyl}-quinolin-2-yl)-cyclopentylmethyl-ethyl-amine]
- IC50: ≤ 5 µM

Compound: CCN(CC1CCCC1)c1nc2ccc(C)cc2cc1CN(Cc1cc(C(F)(F)F)cc(C(F)(F)F)c1)C(=O)OC [Example 46, (3,5-bis-trifluoromethyl-benzyl)-[2-(cyclopentylmethyl-ethyl-amino)-6-methyl-quinolin-3-ylmethyl]-carbamic acid methyl ester]
- IC50: ≤ 5 µM

Compound: CCOC(=O)c1c(CN(Cc2cc(C(F)(F)F)cc(C(F)(F)F)c2)c2nnn(C)n2)c2ccccc2n1C(=O)C1CCCC1 [Example 127, 3-{[(3,5-bis-trifluoromethyl-benzyl)-(2-methyl-2H-tetrazol-5-yl)-amino]-methyl}-1-cyclopentanecarbonyl-1H-indole-2-carboxylic acid ethyl ester]
- IC50: ≤ 1 µM

Compound: CCN(CC1CCCC1)c1nc2c(cc1CN(Cc1cc(C(F)(F)F)cc(C(F)(F)F)c1)c1nnn(C)n1)CCCC2 [Example 77]
- IC50: ≤ 1 µM

Compound: CCN(CC1CCCC1)c1nc2ccccc2cc1CN(Cc1cc(C(F)(F)F)cc(C(F)(F)F)c1)C(=S)SC [Example 48, (3,5-bis-trifluoromethyl-benzyl)[2-(cyclopentylmethyl-ethyl-amino)-quinolin-3-ylmethyl]-dithiocarbamic acid methyl ester]
- IC50: ≤ 5 µM

Compound: CCN(CC1CCCC1)c1nc2ccccc2cc1CN(Cc1cc(C(F)(F)F)cc(C(F)(F)F)c1)C1=NCCO1 [Example 68, (3-{[(3,5-bis-trifluoromethyl-benzyl)-(4,5-dihydro-oxazol-2-yl)-amino]-methyl}-quinolin-2-yl)-cyclopentylmethyl-ethyl-amine]
- IC50: ≤ 5 µM

Compound: Cc1cccc2cc(CN(Cc3cc(C(F)(F)F)cc(C(F)(F)F)c3)c3ccc(Br)cn3)c(N(CC3CC3)CC3CC3)nc12 [Example 111, (3-{[(3,5-bis-trifluoromethyl-benzyl)-(5-bromo-pyridin-2-yl)-amino]-methyl}-8-methyl-quinolin-2-yl)-bis-cyclopropylmethyl-amine]
- IC50: ≤ 1 µM

Compound: CCN(CC1CCCC1)c1nc2ccccc2cc1CN(Cc1cc(C(F)(F)F)cc(C(F)(F)F)c1)C(=O)OC [Example 35, (3,5-bis-trifluoromethyl-benzyl)-[2-(cyclopentylmethyl-ethyl-amino)-quinolin-3-ylmethyl]-carbamic acid methyl ester]
- IC50: ≤ 5 µM

Compound: CCN(CC1CCCC1)c1nc2c(cc1CN(Cc1cc(C(F)(F)F)cc(C(F)(F)F)c1)C(=O)OC)CCCC2 [Example 74]
- IC50: ≤ 1 µM

Compound: CCCCN(CC)c1ncccc1CN(Cc1cc(C(F)(F)F)cc(C(F)(F)F)c1)c1nnn(C)n1 [Example 73]
- IC50: ≤ 5 µM

Compound: CCN(CC1CCCC1)c1nc2ccccc2cc1CN(Cc1cc(C(F)(F)F)cc(C(F)(F)F)c1)c1nc(C)cs1 [Example 63]
- IC50: ≤ 5 µM

Compound: CCN(CC1CCCC1)c1nc2c(cc1CN(Cc1cc(F)cc(F)c1)c1nnn(C)n1)c(C)nn2C [Example 18, cyclopentylmethyl-ethyl-(5-{[(3,5-difluoro-benzyl)-(2-methyl-2H-tetrazol-5-yl)-amino]-methyl}-1,3-dimethyl-1H-pyrazolo[3,4-b]pyridine-6-yl)-amine]
- IC50: ≤ 1 µM

Compound: Cc1cccc2cc(CN(Cc3cc(C(F)(F)F)cc(C(F)(F)F)c3)c3ncnc(Cl)n3)c(N(CC3CC3)CC3CC3)nc12 [Example 117, (3-{[(3,5-bis-trifluoromethyl-benzyl)-(4-chloro-[1,3,5]triazin-2-yl)-amino]-methyl}-8-methyl-quinolin-2-yl)-bis-cyclopropylmethyl-amine]
- IC50: ≤ 1 µM

Compound: CCN(CC1CCC1)c1nc2ccccc2cc1CN(Cc1cc(C(F)(F)F)cc(C(F)(F)F)c1)c1nnn(C)n1 [Example 56]
- IC50: ≤ 1 µM

Compound: CCOC(=O)NC(=S)N(Cc1cc(C(F)(F)F)cc(C(F)(F)F)c1)Cc1cc2ccccc2nc1N(CC)CC1CCCC1 [Example 49, 3-ethoxycarbonyl-1-(3,5-Bis-trifluoromethyl-benzyl)-1-[2-(cyclopentylmethyl-ethyl-amino)-quinolin-3-ylmethyl]-thiourea]
- IC50: ≤ 5 µM

Compound: CCN(CC1CCC1)c1nc2ccccc2cc1CN(Cc1cc(C(F)(F)F)cc(C(F)(F)F)c1)c1cc(C)on1 [Example 65, (3-{[3,5-bis-trifluoromethyl-benzyl-(5-methyl-isoxazol-3-yl)-amino]-methyl}-quinolin-2-yl)-cyclobutylmethyl-ethyl-amine]
- IC50: ≤ 1 µM

Compound: CCN(CC1CCCC1)c1nc2c(cc1CN(Cc1cc(C(F)(F)F)cc(C(F)(F)F)c1)c1nnc(C)o1)CCCC2 [Example 78, (3-{[3,5-bis-trifluoromethyl-benzyl)-(5-methyl-[1,3,4oxadiazol-2-yl)-amino]-methyl}-5,6,7,8-tetrahydroquinoline-2-yl)-cyclopentylmethyl-ethyl-amine]
- IC50: ≤ 1 µM

Compound: CCN(CC1CCCC1)c1nc2c(cc1CN(Cc1cc(C(F)(F)F)cc(C(F)(F)F)c1)c1nnn(C)n1)c(C)nn2C [Example 24, (5-{[(3,5-bis-trifluoromethyl-benzyl)-(2-methyl-2H-tetrazol-5-yl)-amino]-methyl}-1,3-dimethyl-1H-pyrazolo[3,4-b]pyridin-6-yl)-cyclopentylmethyl-ethyl-amine]
- IC50: ≤ 1 µM

Compound: CCN(CC1CCC1)c1nc2ccccc2cc1CN(Cc1cc(C(F)(F)F)cc(C(F)(F)F)c1)C(=O)OC [Example 45]
- IC50: ≤ 5 µM

Compound: CCN(CC1CC1)c1nc2c(cc1CN(Cc1cc(C(F)(F)F)cc(C(F)(F)F)c1)c1nnn(C)n1)c(C)nn2C [Example 3, (5-{[(3,5-bis-trifluoromethyl-benzyl)-(2-methyl-2H-tetrazole-5-yl)-amino]-methyl}-1,3-dimethyl-1H-pyrazolo[3,4-b]pyridin-6-yl)-cyclopropylmethyl-ethyl-amine]
- IC50: ≤ 1 µM

Compound: CCN(CC1CCCC1)c1nc2ccccc2cc1CN(Cc1cc(C(F)(F)F)cc(C(F)(F)F)c1)c1ncccn1 [Example 66, (3-{[(3,5-bis-trifluoromethyl-benzyl)-pyrimidin-2-yl-amino]-methyl}-quinolin-2-yl)-cyclopentylmethyl-ethyl-amine]
- IC50: ≤ 5 µM

Compound: CCN(CC1CCCC1)c1nc2onc(C)c2cc1CN(Cc1cc(C(F)(F)F)cc(C(F)(F)F)c1)c1nnn(C)n1 [Example 33, (5-{[(3,5-bis-trifluoromethyl-benzyl)-(2-methyl-2H-tetrazol-5-yl)-amino]-methyl}-3-methyl-isoxazolo[5,4-b]pyridine-6-yl)-cyclopentylmethyl-ethyl-amine]
- IC50: ≤ 1 µM

Compound: CCCCN(CC)c1nc2ccccc2cc1CN(Cc1cc(C(F)(F)F)cc(C(F)(F)F)c1)C(=O)OCC [Example 41, (3,5-bis-trifluoromethyl-benzyl)-[2-(butyl-ethyl-amino)-quinolin-3-ylmethyl]-carbamic acid ethyl ester]
- IC50: ≤ 5 µM

Compound: CCN(CC1CCC1)c1nc2c(cnn2C)cc1CN(Cc1cc(C(F)(F)F)cc(C(F)(F)F)c1)c1nnn(C)n1 [Example 12, (5-{[(3,5-bis-trifluoromethyl-benzyl)-(2-methyl-2H-tetrazol-5-yl)-amino]-methyl}-1-methyl-1H-pyrazolo[3,4-b]pyridin-6-yl)-cyclobutylmethyl-ethyl-amine]
- IC50: ≤ 1 µM
